Test results: patent US8481555B2, “Aza-bicyclic amine N-oxide compounds as alpha-7 nicotinic acetylcholine receptor ligand pro-drugs” (Bristol-Myers Squibb Company, priority 2010, dated 2013)
Where two headings read alike, the source gives them in different places.

Experiments:
[1] = Conversion of Compound B to Compound A in the dog (IV infusion and oral gavage, crossover); assay type: in vivo, male beagle dogs; conditions: for AUC(0-t): analyte as labelled, read-out: AUC(0-24 h)
Method: (§1) The following section details the liquid chromatography with tandem mass spectrometry (LC/MS/MS)-based bioanalytical methods developed to support the analysis of the in vivo biological samples (brain, plasma, urine) from studies conducted in the dog and rat.
(§2) Sample Preparation: Blood, Plasma, Serum, Urine. Plasma and blood samples were prepared as described below. If dilutions were required, an aliquot of the sample was diluted into the respective matrix. For the analysis of urine samples, an aliquot was first diluted into blank plasma and then treated as described below.
(§3) Sample preparation was conducted manually or on a Packard MultiPROBE automated liquid handler. The internal standard (IS) solution (1000 nM (S,E)-5-bromo-N-(1′-azaspiro[oxazolidine-5,3′-bicyclo[2.2.2]octane]-2-ylidene)pyrazin-2-amine) was prepared in acetonitrile. Two hundred microliters of the IS solution was added to each well of a Strata protein precipitation filter plate (Phenomenex, Torrance, Calif.). Biological samples (60 μL) were added to the filter plate. The filter plate was attached atop a standard 96 well plate and the entire unit was centrifuged at 1100 rpm for 2 minutes. The supernatant was collected in the 96 well plate. Five microliters of each sample was injected onto the LC/MS/MS system for analysis.
(§4) Instrumentation. The UHPLC system used was an Agilent 1200 series (Agilent Technologies, Wilmington, Del.) coupled with CTC Analytics HTS PAL Auto Sampler (Leap Technologies, Carrboro, N.C.) that was equipped with a cooling stack so that samples were maintained at 10° C. during analysis. The analytical column used was a Waters Acquity HSS T3 (2.1×50 mm, 1.8 um particles) at 60° C. The mobile phase, which consisted of 0.1% formic acid in water (A) and 0.1% formic acid in acetonitrile (B), was delivered at a flow rate of 0.6 mL/min.
(§5) The UHPLC was interfaced to an API4000 QTrap LC/MS/MS System® (AppliedBiosystems/MDS Sciex, Foster City, Calif.) equipped with an electrospray ionization interface operating in the positive ionization mode. The source temperature was 500° C. Detection of each analyte was achieved through selected reaction monitoring. Ions representing the precursor (M+H)^+ species for Compound A, Compound B, and the IS were selected in quadrupole 1 and collisionally dissociated with nitrogen to generate specific product ions, which were subsequently monitored by quadrupole 3.
(§6) Standard Curve Ranges. Unless otherwise specified, the analysis of Compound A and Compound B were conducted against a standard curve ranging from 0.6 to 1,250 nM and 4.8 to 5,000 nM, respectively. The standard curve was fitted with a linear regression weighted by the square of the reciprocal concentration (1/x^2). Standards were analyzed in duplicate. Quality control samples were prepared in blank biological matrix at concentration levels within the range of the standard curve. The predicted concentrations of more than 80% of the QCs from various different matrices were within 20% of nominal values, indicating acceptable assay performance.
Conversion of N-oxide, Compound B, to Compound A in the dog. The conversion of Compound B to Compound A was evaluated in a crossover-design study in male beagle dogs. Three animals (5 to 8 kg) received Compound B by IV infusion (1 mg/kg over 5 minutes) via a cephalic vein and by oral gavage (5 mg/kg), with a 1-week washout between treatments. Serial blood samples (˜0.3 mL) were collected from a saphenous vein predose and at (0.083, 0.17 IV only), 0.25, 0.5, 0.75, 1, 2, 4, 6, 8, and 24 hours post dose, followed by centrifugation at 4° C. (1500-2000×g) to obtain plasma. Samples were stored at −20° C. until analysis by LC/MS/MS.
Table VI summarizes the PK parameters of Compound B and the appearance of Compound A following a single dose in dogs. Following either an IV or PO dose, the conversion of Compound B to Compound A was observed; however, it was more extensive after oral dosing. […]

[2] = as above; assay type: in vivo, male beagle dogs; conditions: plasma
[3] = Conversion of Compound B to Compound A in the rat (intra-duodenal infusion, portal vein sampling); assay type: in vivo, male Sprague-Dawley rats; conditions: intra-duodenal infusion of Compound B 10 mg/kg, analyte as labelled; for AUC(0-t): 10 mg/kg; for AUC(0-t) / Cmax: fasted, PVC collection, plasma
Method: as §1, §2, §3, §4, §5, §6
Conversion of N-oxide, Compound B, to Compound A in the rat. The conversion of Compound B to Compound A was evaluated in male Sprague-Dawley rats (260-280 g) Animals (N=3 per group) received Compound B as an intra-duodenal infusion (10 mg/kg over 10 minutes) via an indwelling intra-duodenal cannula (IDC) with collection via the intra-portal vein. Serial blood samples were obtained predose and at 0.17, 0.25, 0.5, 0.75, 1, 2, 4, 6, 8, and 24 hours post dose. Plasma samples, obtained by centrifugation at 4° C. (1500-2000×g), were stored at −20° C. until analysis.
All conversion studies in rats were performed in animals containing indwelling cannulas in the duodenum and portal vein. The studies were designed to isolate the role of the GI tract in the reduction of Compound B. Table IV summarizes the exposure of Compound B and Compound A in the portal vein following an intra-duodenal infusion of Compound B in the rat. […]

[4] = male, beagle, fasted, oral gavage of Compound B 5 mg/kg, plasma
[5] = male, beagle, fed, IV infusion of Compound B 1 mg/kg, plasma
[6] = male, Sprague-Dawley, in vivo, read-out: AUC(0-4)
[7] = male, Sprague-Dawley, in vivo, read-out: Plasma concentration in the portal vein
[8] = fed, IV infusion of Compound B 1 mg/kg, plasma

Compound: c1ccc2cc(NC3=NC[C@@]4(CN5CCC4CC5)O3)ncc2c1 [Compound A, (R)—N-(isoquinolin-3-yl)-4H-1′-azaspiro[oxazole-5,3′-bicyclo[2.2.2]octan]-2-amine]
- AUC of Compound A after IV Compound B as percent of the AUC of Compound A after IV administration of Compound A ([1]; IV): ~3%
- AUC of Compound A after PO Compound B as percent of the oral AUC of Compound A after PO Compound A alone ([1]; PO): roughly 40%
- AUC(0-t) [1, 4]: 0.7 ± 0.2 µM·h
- AUC(0-t) [1, 5]: 0.03 µM·h
- AUC ([2]; male, beagle, PO dosing of Compound B (10 mg/kg as printed in text), read-out: plasma AUC of Compound A after PO dosing of Compound B): 0.7 µM·h
- AUC ([2]; PO administration of Compound A alone, read-out: oral AUC of Compound A following PO administration of Compound A alone): 1.74 µM·h
- AUC(0-t) [3, 6]: 1.22 ± 1.1 µM·h
- AUC(0-t) ([3]; male, Sprague-Dawley, in vivo, read-out: AUC(0-24 h)): 2.55 ± 1.93 µM·h
- Cmax ([3]; male, Sprague-Dawley, in vivo): 860 ± 340 nM
- concentration at 0.167 h [3, 7]: 3 nM
- concentration at 0.25 h [3, 7]: 7 nM
- concentration at 0.5 h [3, 7]: 112 nM
- concentration at 0.75 h [3, 7]: 207 nM
- concentration at 1 h [3, 7]: 448 nM
- concentration at 2 h [3, 7]: 750 nM
- concentration at 4 h [3, 7]: 455 nM
- concentration at 6 h ([3]; male, Sprague-Dawley, in vivo, 6 hours, read-out: Plasma concentration in the portal vein): 434 nM
- concentration at 8 h ([3]; male, Sprague-Dawley, in vivo, 8 hours, read-out: Plasma concentration in the portal vein): 125 nM
- concentration at 24 h ([3]; male, Sprague-Dawley, in vivo, 24 hours, read-out: Plasma concentration in the portal vein): 6 nM

Compound: [O-][N+]12CCC(CC1)[C@]1(CN=C(Nc3cc4ccccc4cn3)O1)C2 [Compound B, (S)-2-(Isoquinolin-3-ylamino)-4H-1′-azaspiro[oxazole-5,3′-bicyclo[2.2.2]octane]1′-oxide]
- CLTp [1, 8]: 13.7 ± 4.0 mL/min/kg
- T-HALF [1, 8]: 9.4 ± 6.5 h
- AUC(0-inf) [1, 4]: 5.69 ± 0.39 µM·h
- Cmax [1, 4]: 850 ± 460 nM
- AUC(0-t) [1, 4]: 5.16 ± 0.68 µM·h
- AUC(0-inf) [1, 5]: 3.94 ± 1.01 µM·h
- AUC(0-t) [1, 5]: 3.84 ± 0.92 µM·h
- Vd ([1]; male, beagle, fed, IV infusion of Compound B 1 mg/kg, plasma, read-out: Vss): 2 ± 0.2 L/kg
- bioavailability ([1]; male, beagle, plasma, fasted, oral gavage of Compound B 5 mg/kg): 27 ± 15%
- Plasma concentration in the portal vein ([3]; 6 hours): < LLQ
- Plasma concentration in the portal vein ([3]; 8 hours): < LLQ
- Plasma concentration in the portal vein ([3]; 24 hours): < LLQ
- AUC(0-t) [3, 6]: 0.34 ± 0.04 µM·h
- Cmax ([3]; male, Sprague-Dawley, in vivo): 760 ± 240 nM
- concentration at 0.167 h [3, 7]: 601 nM
- concentration at 0.25 h [3, 7]: 758 nM
- concentration at 0.5 h [3, 7]: 177 nM
- concentration at 0.75 h [3, 7]: 90 nM
- concentration at 1 h [3, 7]: 69 nM
- concentration at 2 h [3, 7]: 52 nM
- concentration at 4 h [3, 7]: 18 nM
